In one data set the target is T1, GLP-1R (Homo sapiens, UniProt P43220).
T1 construct: expressed in transfected cells; host or cells: HEK293 (HEK293-GLP-1R)
Nature of the data set: In vitro cell activity, cAMP production in HEK293 cells expressing GLP-1R. It is filed as cell-based. In short, it runs like this: (§1)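 HEK293 transfectants, 4×10^5 cells/mL, 384-well. Detection: cAMP-d2 + anti-cAMP cryptate 1:1, RT 1 h dark or 4 °C o/n. Read 665/620 nm; 4-parameter nonlinear fit → EC50.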
On the technique in general: Changes in cAMP serve as a functional read-out for many G protein-coupled receptors.

A further data set addresses T2, GCGR (Homo sapiens, UniProt P47871).
T2 construct: expressed in transfected cells; host or cells: HEK293 (HEK293-GCGR)
Nature of the data set: In vitro cell activity, cAMP production in HEK293 cells expressing GCGR. It is filed as cell-based. The method in brief: as §1

A further data set addresses T3, GIPR (Homo sapiens, UniProt P48546).
T3 construct: expressed in transfected cells; host or cells: HEK293 (HEK293-GIPR)
T3 sequence (P48546 22-466): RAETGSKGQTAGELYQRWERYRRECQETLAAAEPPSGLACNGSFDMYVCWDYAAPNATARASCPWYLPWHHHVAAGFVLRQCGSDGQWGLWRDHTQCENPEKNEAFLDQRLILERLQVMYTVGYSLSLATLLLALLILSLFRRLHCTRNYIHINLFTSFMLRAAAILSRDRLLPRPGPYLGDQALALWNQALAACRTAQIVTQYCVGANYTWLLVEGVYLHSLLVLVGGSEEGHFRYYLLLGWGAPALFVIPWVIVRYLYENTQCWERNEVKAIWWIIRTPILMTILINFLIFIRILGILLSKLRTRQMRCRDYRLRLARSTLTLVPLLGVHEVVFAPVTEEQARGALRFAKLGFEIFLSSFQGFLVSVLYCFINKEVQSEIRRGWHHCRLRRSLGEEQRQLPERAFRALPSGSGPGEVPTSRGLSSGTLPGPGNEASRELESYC
Nature of the data set: In vitro cell activity, cAMP production in HEK293 cells expressing GIPR. It is filed as cell-based. In short, it runs like this:
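HEK293 cells expressing human GIPR, thawed and diluted to 4×10^5 cells/mL, are stimulated with test compound. cAMP is measured by HTRF competition between cAMP-d2 and anti-cAMP cryptate. EC50 comes from a four-parameter nonlinear fit of signal ratio against concentration.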

A short description of data set [1]: Pharmacokinetic study in rats, single subcutaneous injection. The following applies: male, Sprague Dawley, in vivo, sc, rat, 50 nmol/kg single subcutaneous injection, plasma; for half-life: read-out: T1/2 (converted); for Tmax: read-out: Tmax. Here is the method:
The pharmacokinetic study of each polypeptide compound prepared in Example 1 was conducted using male Sprague Dawley rats. There were 3 male rats in each group. […] The dose was 50 nmol/kg, and a single subcutaneous injection was given (see Table 3 for specific peptide compounds). After administration, plasma was collected on the specified days and time points, and the concentration of each peptide compound in the plasma was detected by LC-MS/MS method. The pharmacokinetic parameters were obtained based on the concentration data, which were used to describe the pharmacokinetic properties of the peptide in rats after subcutaneous injection. Table 3: Summary of pharmacokinetic parameters of some triple-target peptides in rats

A short description of data set [2]: Glucose tolerance assessment in normal C57BL/6 mice (Example 5). It is filed as in vivo. The following applies: for Blood glucose level (mM) 15 min / Blood glucose level (mM) 30 min / Blood glucose level (mM) 60 min / Blood glucose level (mM) 90 min / Blood glucose level (mM) 0 min / AUC0-90 min: 3 nmol/kg s.c. single dose, 24 h after administration; for Blood glucose level (mM) 15 min: 15 min after 2 g/kg glucose i.p.; for Blood glucose level (mM) 30 min: 30 min after 2 g/kg glucose i.p.; for Blood glucose level (mM) 60 min: 60 min after 2 g/kg glucose i.p.; for Blood glucose level (mM) 90 min: 90 min after 2 g/kg glucose i.p.; for Blood glucose level (mM) 0 min: basal before 2 g/kg glucose i.p.; for AUC0-90 min: blood glucose AUC, 2 g/kg glucose i.p. The method in brief: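 Normal C57BL/6 mice given a single dose, fasted 12 h starting 12 h post-dose, then challenged with 2 g/kg glucose i.p. Tail-vein glucose measured at baseline and 15, 30, 60, 90 min. AUC0~90min calculated from the glucose–time curve per dose group.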

Marks after values point to notes of the source that are not given here. Starred links: 1 amine or outer side, 2 acyl side, 3 side chain; linkers in the order of their positions; H or OH if unused. Non-standard residues stand in square brackets, D forms with d. Residues, ends and D or L forms follow the SMILES beside them. Groups on a side chain read outwards from the residue. *: point of attachment. C18 diacid = O=C(O)CCCCCCCCCCCCCCCCC(=O)*; αMePhe(2-F) = C[C@](N)(Cc1ccccc1F)C(=O)O; γGlu = O=C(O)[C@H](CCC(=O)[*:2])N[*:1]; AEEA = NCCOCCOCC(=O)O; Aib = CC(C)(N)C(=O)O

T1 sequence (P43220 24-463, species assumed): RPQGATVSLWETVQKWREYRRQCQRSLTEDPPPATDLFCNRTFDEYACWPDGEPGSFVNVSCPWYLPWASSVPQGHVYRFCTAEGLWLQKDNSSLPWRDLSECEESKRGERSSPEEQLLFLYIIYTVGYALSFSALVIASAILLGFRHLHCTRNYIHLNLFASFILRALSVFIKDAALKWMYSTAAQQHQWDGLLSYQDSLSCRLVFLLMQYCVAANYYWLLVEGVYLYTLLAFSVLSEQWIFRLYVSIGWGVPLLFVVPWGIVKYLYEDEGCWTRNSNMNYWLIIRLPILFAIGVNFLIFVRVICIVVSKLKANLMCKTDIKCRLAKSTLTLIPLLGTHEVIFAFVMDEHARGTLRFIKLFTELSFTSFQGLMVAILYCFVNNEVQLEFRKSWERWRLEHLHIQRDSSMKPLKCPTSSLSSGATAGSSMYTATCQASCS
T2 sequence (P47871 26-477, species assumed): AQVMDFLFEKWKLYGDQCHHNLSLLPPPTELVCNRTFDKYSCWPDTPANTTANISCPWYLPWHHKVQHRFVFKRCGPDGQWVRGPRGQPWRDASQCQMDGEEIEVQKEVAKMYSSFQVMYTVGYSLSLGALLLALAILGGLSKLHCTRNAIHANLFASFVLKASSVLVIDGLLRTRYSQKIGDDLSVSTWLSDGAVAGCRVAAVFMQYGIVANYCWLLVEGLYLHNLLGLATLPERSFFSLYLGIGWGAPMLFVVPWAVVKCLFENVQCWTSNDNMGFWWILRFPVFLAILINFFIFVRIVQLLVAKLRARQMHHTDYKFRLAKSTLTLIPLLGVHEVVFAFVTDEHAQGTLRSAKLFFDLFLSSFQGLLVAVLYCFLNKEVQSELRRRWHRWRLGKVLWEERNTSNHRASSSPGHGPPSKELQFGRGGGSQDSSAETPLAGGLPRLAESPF

In the case of `CC[C@H](C)[C@H](NC(=O)[C@H](CCCCN)NC(=O)[C@H](CC(=O)O)NC(=O)[C@H](CCCCNC(=O)COCCOCCNC(=O)CC[C@H](NC(=O)CCCCCCCCCCCCCCCCC(=O)O)C(=O)O)NC(=O)[C@H](CC(C)C)NC(=O)[C@@H](NC(=O)[C@H](CO)NC(=O)[C@H](Cc1ccc(O)cc1)NC(=O)[C@H](CC(=O)O)NC(=O)[C@H](CO)NC(=O)[C@@H](NC(=O)[C@](C)(Cc1ccccc1F)NC(=O)[C@@H](NC(=O)CNC(=O)[C@H](CCC(N)=O)NC(=O)C(C)(C)NC(=O)[C@@H](N)Cc1ccc(O)cc1)[C@@H](C)O)[C@@H](C)O)[C@@H](C)CC)C(=O)N[C@@H](C)C(=O)N[C@@H](CCC(N)=O)C(=O)N[C@@H](CCC(N)=O)C(=O)N[C@@H](C)C(=O)N[C@@H](Cc1ccccc1)C(=O)N[C@H](C(=O)N[C@@H](CCC(=O)O)C(=O)N[C@@H](Cc1ccc(O)cc1)C(=O)N[C@@H](CC(C)C)C(=O)N[C@@H](CC(C)C)C(=O)N[C@@H](CCC(=O)O)C(=O)NCC(=O)NCC(=O)N1CCC[C@H]1C(=O)N[C@@H](CO)C(=O)N[C@@H](CO)C(=O)NCC(=O)N[C@@H](C)C(=O)N1CCC[C@H]1C(=O)N1CCC[C@H]1C(=O)N1CCC[C@H]1C(=O)N[C@@H](CO)C(N)=O)[C@@H](C)CC` [HEC-PT113] (H-Y[Aib]QGT[αMePhe(2-F)]TSDYSILK([AEEA-γGlu-C18 diacid])DKIAQQAFIEYLLEGGPSSGAPPPS-NH2), on GLP-1R, the concentration for a half-maximal effect (EC50) is 0.103 nM. This compound also returned an EC50 on GCGR of 0.171 nM. For the same compound, the EC50 at GIPR came to 0.0188 nM. Also, in data set [1], the AUC(0-inf) turned out to be 27900 ± 4180 ng·h/mL, the AUC(0-t) is 27700 ± 4110 ng·h/mL, the concentration peaked (Cmax) at 714 ± 63.2 ng/mL and the half-life was 11 ± 0.62 h. For the same compound, the Tmax in data set [1] is 13 ± 9.9 h. In addition, in data set [2], the “Blood glucose level (mM) 15 min” value is 12.6 ± 1.7 mM, the “Blood glucose level (mM) 30 min” value came to 8.0 ± 1.0 mM, the “Blood glucose level (mM) 60 min” value was found to be 7.9 ± 1.3 mM and the “Blood glucose level (mM) 90 min” value amounted to 6.7 ± 0.8 mM. In addition, in data set [2], the “Blood glucose level (mM) 0 min” value worked out at 4.6 ± 0.9 mM and the AUC0-90 min is on record as 743.5±48.5^a. In addition, in data set [2] (24 hours after a single administration, 3 nmol/kg), the “improvement of glucose tolerance compared with LY3298176” value is given as “improved glucose tolerance in mice better than the positive control LY3298176”.
`CC[C@H](C)[C@H](NC(=O)[C@H](Cc1ccccc1)NC(=O)[C@H](CCC(=O)O)NC(=O)[C@H](CCCNC(=N)N)NC(=O)[C@H](CCC(N)=O)NC(=O)[C@H](CCCNC(=N)N)NC(=O)[C@H](CCCCNC(=O)COCCOCCNC(=O)CC[C@H](NC(=O)CCCCCCCCCCCCCCCCCCC(=O)O)C(=O)O)NC(=O)[C@H](CCC(=O)O)NC(=O)[C@H](CC(=O)O)NC(=O)[C@H](CC(C)C)NC(=O)[C@H](CC(C)C)NC(=O)[C@@H](NC(=O)[C@H](CO)NC(=O)[C@H](Cc1ccc(O)cc1)NC(=O)[C@H](CC(=O)O)NC(=O)[C@H](CO)NC(=O)[C@@H](NC(=O)[C@](C)(Cc1ccccc1F)NC(=O)[C@@H](NC(=O)CNC(=O)[C@H](Cc1c[nH]cn1)NC(=O)C(C)(C)NC(=O)[C@@H](N)Cc1ccc(O)cc1)[C@@H](C)O)[C@@H](C)O)[C@@H](C)CC)C(=O)N[C@@H](CCC(=O)O)C(=O)N[C@@H](Cc1c[nH]c2ccccc12)C(=O)N[C@@H](CC(C)C)C(=O)N[C@@H](CC(C)C)C(=O)N[C@@H](C)C(=O)NCC(=O)NCC(=O)N1CCC[C@H]1C(=O)N[C@@H](CO)C(=O)N[C@@H](CO)C(=O)NCC(=O)N[C@@H](C)C(=O)N1CCC[C@H]1C(=O)N1CCC[C@H]1C(=O)N1CCC[C@H]1C(=O)N[C@@H](CO)C(=O)O` [HEC-PT96] returned an EC50 on GLP-1R of 0.158 nM. Besides, the EC50 at GCGR was 0.192 nM. Further, the EC50 at GIPR was determined as 0.149 nM. Moreover, in data set [1], the AUC(0-inf) is 40900 ± 1990 ng·h/mL, the AUC(0-t) stood at 40300 ± 1930 ng·h/mL, the concentration peaked (Cmax) at 840 ± 41.4 ng/mL and the half-life is 17 ± 0.65 h. The time to peak (Tmax) in data set [1] was 25 ± 2.3 h. In addition, in data set [2], the “Blood glucose level (mM) 15 min” value was 13.0 ± 2.9 mM, the “Blood glucose level (mM) 30 min” value came to 10.8 ± 3.2 mM, the “Blood glucose level (mM) 60 min” value is 7.9 ± 1.6 mM and the “Blood glucose level (mM) 90 min” value was 6.2 ± 1.3 mM. Besides, in data set [2], the “Blood glucose level (mM) 0 min” value amounted to 4.2 ± 0.6 mM and the AUC0-90 min is given as 798.9±146.0^a.

The EC50 is the concentration needed to bring the measured effect to its halfway point. Read a high EC50 as weaker potency. In general, AUC(0-inf) refers to total exposure, with the tail of the curve extrapolated. The low end stands for less exposure, the high end for more exposure. The term AUC(0-t) denotes the area under the concentration-time curve up to a stated or last time point. Read a high AUC(0-t) as more exposure. A word on the Cmax: it is the maximum level reached in the sampled fluid or tissue. Usually Tmax stands for the time at which the peak concentration occurs.
